Experimental data: patent publication US5116858A, “4-imidazoline derivatives” (Mitsubishi Kasei Corporation, priority 1989, dated 1992)

System: peroxidized lipid in rat brain homogenate
Assay: Lipoperoxidation inhibitory activity in brain homogenate (TBA method)
Type: biochemical, Wistar male rats
Details: 30 minutes at 37° C., final conc. 0.3-100 μM, read-out: Anti-lipoperoxidation Activity IC50
Method: Brain homogenate was prepared using Wistar male rats in accordance with the following procedure. […] A polyethylene tube was inserted into the aorta through the left ventricle, and fixed. Brain perfusion was conducted using ice-cooled 50 mM phosphate buffered saline (PBS), pH 7.4, through the tube, and whole brain was extracted. After removal of the cerebellum, the cerebrum was weighed while wet and homogenated by a Teflon homogenizer under ice-cooling, after addition of nine-fold by weight of PBS. The resultant homogenate was centrifuged at 4° C. (2200 r.p.m., 10 minutes), and an aliquot of the supernatant (0.3 ml) was placed in a light-resistant test tube with ground stopper and used for the following test.
To the brain homogenate obtained above were added PBS (0.6 ml) and an ethanol solution (10 μl) containing a predetermined amount of a test compound. Thus, each of the ethanol solutions was prepared so that the final concentration of the compound was 0.3-100 μM. The mixture was allowed to warm for 30 minutes at 37° C. (external bath temperature). […] (2600 r.p.m., 10 minutes). The resultant supernatant was used in the following quantitative analysis.
The aqueous mixture was heated in a boiling-water bath for 60 minutes and cooled rapidly. Distilled water (1.0 ml) and a mixture of pyridine and butanol (1:15) (5.0 ml) were added to the cooled mixture, and the latter was shaken for 30 seconds and centrifuged (3000 r.p.m., 10 minutes). The supernatant was used as a test sample for quantitative analysis of peroxidized lipid as mentioned below.

CCn1c(-c2ccc(OC(C)C)cc2)c(C)[nH]c1=O [compound 60]
IC50: 39.1 µM

CCCCOc1cccc(-c2c(C)[nH]c(=O)n2C2CCCCC2)c1 [compound 110]
IC50: 9 µM

CCCc1ccc(-c2c(C)[nH]c(=O)n2C)cc1 [Compound No. 7]
IC50: 21.5 µM

CCCCCCCCCCc1ccc(-c2c(C)[nH]c(=O)n2C2CCCCC2)cc1 [compound 102]
IC50: 27 µM

CCCCCCOc1ccc(-c2c(C)[nH]c(=O)n2C)cc1 [Compound No. 21]
IC50: 7.3 µM

CCCCc1ccc(-c2c(CC)[nH]c(=O)n2C)cc1 [compound 3]
IC50: 13.9 µM

CCCCc1ccc(-c2c(C)[nH]c(=O)n2CC)cc1 [compound 55]
IC50: 24.5 µM

CCCCOc1ccccc1-c1c(C)[nH]c(=O)n1C(C)C [compound 80]
IC50: 25.5 µM

CCCCCCCCCOc1ccc(-c2c(C)[nH]c(=O)n2C)cc1 [compound 24]
IC50: 4.8 µM

CCCCc1ccc(-c2c(CC)[nH]c(=O)n2CC)cc1 [compound 56]
IC50: 13.9 µM

CCCc1ccc(-c2c(C)[nH]c(=O)n2CC)cc1 [compound 54]
IC50: 22.6 µM

CCCCn1c(-c2ccccc2)c(C)[nH]c1=O [Compound B, reference compound]
IC50: > 100 µM

CCCCSc1ccc(-c2c(C)[nH]c(=O)n2CC)cc1 [compound 61]
IC50: 12.9 µM

Cc1[nH]c(=O)n(C)c1-c1ccc(OC(C)C)cc1 [compound 17]
IC50: 20.4 µM

CCCCCCCCc1ccc(-c2c(C)[nH]c(=O)n2C2CCCCC2)cc1 [compound 101]
IC50: 10.3 µM

Cc1[nH]c(=O)n(C)c1-c1ccc(C(C)(C)C)cc1 [Compound No. 9]
IC50: 8.4 µM

Cc1[nH]c(=O)n(C2CCCCC2)c1-c1ccccc1OC(C)C [compound 108]
IC50: 21.5 µM

Cc1[nH]c(=O)n(C)c1-c1ccc(OCc2ccccc2)cc1 [compound 29]
IC50: 6.7 µM

Cc1[nH]c(=O)n(Cc2ccccc2)c1-c1ccc(C2CCCCC2)cc1 [compound 140]
IC50: 35.3 µM

COc1ccc(-c2c(C)[nH]c(=O)n2C)cc1 [Compound A, reference compound]
IC50: 147 µM

Cc1[nH]c(=O)n(C2CCCCC2)c1-c1ccc(OCCC(C)C)cc1 [compound 94, 1-Cyclohexyl-5-(4'-isoamyloxyphenyl)-4-methyl-4-imidazolin-2-one]
IC50: 7.2 µM

Cc1[nH]c(=O)n(C)c1-c1ccc(Oc2ccccc2)cc1 [compound 28]
IC50: 8.1 µM

COC1=C(OC)C(=O)C(CCCCCCCCCCO)=C(C)C1=O [Idebenone, reference compound]
IC50: 17.2 µM

CSc1ccc(-c2c(C)[nH]c(=O)n2C)cc1 [compound 31]
IC50: 39.4 µM

CCCCCc1ccc(-c2c(C)[nH]c(=O)n2C)cc1 [compound 6]
IC50: 5.9 µM

Cc1[nH]c(=O)n(C)c1-c1ccc(OCCC(C)C)cc1 [Compound No. 20]
IC50: 6.6 µM

CCCCCCc1ccc(-c2c(C)[nH]c(=O)n2Cc2ccccc2)cc1 [compound 139]
IC50: 8.2 µM

CCCCCOc1ccc(-c2c(C)[nH]c(=O)n2C)cc1 [compound 19]
IC50: 4.5 µM

Cc1[nH]c(=O)n(Cc2ccccc2)c1-c1ccc(C(C)(C)C)cc1 [compound 138]
IC50: 8.6 µM

CCCCCCCOc1ccc(-c2c(C)[nH]c(=O)n2C)cc1 [compound 22]
IC50: 5.7 µM

Cc1[nH]c(=O)n(C2CCCCC2)c1-c1cccc(OC(C)C)c1 [compound 107]
IC50: 10.4 µM

CCCCCOc1ccc(-c2c(C)[nH]c(=O)n2C2CCCCC2)cc1 [compound 112]
IC50: 9.1 µM
